“Also recorded” adds a separate entry of the source.
What was measured:
[1] = test system: HIV DNA; assay: PCR with human white blood cells, 2 mM polyamine, varying number of HIV DNA copies (Experiment No. 2); type: biochemical, HIV-1; conditions: polyamine 2 mM; for number of HIV DNA copies detected (lowest): 40 cycles, copies/tube
Experimental: White blood cells were obtained by taking 14 μl (7×10^4 WBC) of human blood, centrifuging it and removing therefrom the supernatant. Various polyamines (2 mM), HIV DNA (1000, 100 10 and 0 copies/tube) and PCR core solution were added to the white blood cells thus collected for carrying out PCR (total 50 μl ). The same PCR core solution was used as in Experiment No. 1. The PCR was carried out for 40 cycles under the same conditions as in Experiment 1, and the amplification detection was carried out as in Experiment No. 1.

[2] = test system: DNA from LT Escherichia coli; type: biochemical; conditions: for maximum concentration of feces at which amplification bands are observed, relative to no addition of polyamine (J) / appearance of amplification bands: polyamine 1 mM; for maximum concentration of feces at which amplification bands are observed, relative to no addition of polyamine (J): 40 cycles; for reduction of inhibition of PCR due to feces (summary): human feces samples; for appearance of amplification bands: human feces
Experimental: A sample was obtained by making an 8% suspension of human feces in TE buffer and subjecting it to a heat treatment at 95° C. for 10 minutes. […] The detection was carried out as in Experiment No. 1.

[3] = test system: HIV DNA; assay: PCR with human white blood cells, varying polyamine concentration (Experiment No. 1); type: biochemical, HIV-1
Experimental: White blood cells were obtained by taking 14 μl (7×10^4 WBC) of human blood, centrifuging it and removing therefrom the supernatant. Various kinds of polyamine, HIV DNA (100 copies/tube) and PCR core solution were added to the white blood cells thus collected for carrying out PCR (total 50 μl).
After a preheating process of 4 minutes at 94° C., the PCR was carried out for 50 cycles under the conditions of 94° C. for 30 seconds, 60° C. for 1 minute and 72° C. for 1 minute, followed by a polymerization process at 72° C. for 7 minutes. After the PCR was completed, DNAs were detected by electrophoresis with 3% agarose gel containing TAE buffer (40 mM Tris-acetate; 1 mM EDTA, pH 8.0) with 0.5 μg/ml etidium bromide by using 5 μl of the reaction mixture.
and the numerals (1-7) in FIG. 6 indicate the final concentration of polyamine as follows: […]

[4] = test system: β-globin coding region of the mouse; assay: PCR on white blood cells of mouse blood added to human blood, with spermidine (Example No. 2); type: biochemical; conditions: spermidine 2 mM, no purification of DNA
Experimental: Used as the sample was 23 μl of human blood (with 6000 white blood cells/microliter) into which 5 μl of mouse blood, diluted step-wise with a phosphate buffer, was added. After the sample was subjected to a lysis process of red blood cells, the white blood cells were precipitated by centrifugation and the supernatant was removed. Polyamine and PCR core solution were added to the precipitated white cells. The primers for the PCR were oligonucleotide (P3, sequence number=3) homologous to plus-chain and oligonucleotide (P4, sequence number=4) homologous to minus-chain, which are located in the β-globin coding region of the mouse and what gives 174 bp PCR products: where
The same PCR core solution was used as in Example No. 1 except that the primers were P3 and P4. The total amount of the PCR reaction solution was 100 μl, and 10 μl of spermidine solution (final concentration: 2 mM) was added. PCR and detection of amplified DNA were carried out as in Example No. 1. […] If polyamine is added (Group A), by contrast, the inhibition of the amplification reaction is effectively removed, and the presence of PCR products can be detected if there are as few as about ten white blood cells of the mouse without any purification of DNA.

[5] = test system: DNA; assay: PCR with soil or tobacco leaf extract and spermidine (Example No. 3); type: biochemical; conditions: extract from soil or tobacco leaf (Groups B and C, Lanes 2-4)
Experimental: Used as the sample was 100 mg of sandy soil from a rice field or 100 mg of homogenized tobacco leaf. The sample was dissolved with 0.1 M EDTA and 0.1% SDS, purified with weakly negative ion-exchange resin (DEAE-Sepharose, fast flow (Pharmacia)), and eluted with 400 μl of 10 mM of tris-HCl (pH 7.0) containing 1 M NaCl. The extract which was colored light brown or light green indicated existence of much contamination of impurities for rough purification material. PCR was carried out after polyamine and PCR core solution were added to the extract. PCR core solution was prepared by removing KCl from the core solution used in Example No. 1. The amount of the PCR core solution was 24 μl, and 3 μl each of DNA-containing extract and spermidine solution was added thereto. PCR and detection of amplified DNA was carried out as in Example No. 1.
In FIG. 5, A indicates a positive control group containing only DNA, B indicates a group with soil extract mixed thereto, and C indicates a group with a tobacco leaf extract mixed thereto. The final concentration of polyamine was zero in Lane 1, 0.5 mM in Lane 2, 1 mM in Lane 3, 2 mM in Lane 4, 4 mM in Lane 5 and 8 mM in Lane 6. Lane M indicates a molecular weight marker.

[6] = test system: genomic DNA purified from cotton leaves; conditions: DNA isolated from plants; report by Wan and Wilkins; cited from earlier work

| Molecule | number of HIV DNA copies detected (lowest) [1] | maximum concentration of feces at which amplification bands are observed, relative to no addition of polyamine (J) [2] | reduction of inhibition of PCR due to feces (summary) [2] | further results |
| --- | --- | --- | --- | --- |
| NCCN [A, Ethylenediamine] | 10 copies | 4 times |  |  |
| Trimethylenediamine [B] | 10 copies | twice as large | hardly any effect |  |
| NCCNCCNCCN [F, Triethylenetetramine] | 10 copies | 16 times | good results |  |
| NCCCNCCCCNCCCN [G, Spermine] | could not be detected | 4 times | hardly any effect | effect on PCR-inhibiting substances derived from blood ([3]; polyamine 0.125-8 mM, human white blood cells, 100 copies HIV DNA/tube, 50 cycles): hardly any effect; also recorded: no such effect was observed; appearance of amplification bands [2]: only thin amplification bands |
| NCCNCCN [D, Diethylenetriamine] | 10 copies | 8 times |  | sensitivity relative to E [1]: about 10 times; appearance of amplification bands [2]: brighter and thicker amplification bands than E |
| NCCNCCNCCNCCN [H, Tetraethylenepentamine] | 10 copies |  | good results |  |
| NCCCCN [C, Putrescine] | 10 copies | twice as large | hardly any effect |  |
| NCCCCNCCCN [E, Spermidine] |  | 8 times |  | number of white blood cells of the mouse at which PCR products can be detected [4]: about ten; polyamine concentration at which PCR products can be detected [5]: 0.5 to 2 mM; amplification ([3]; polyamine concentration 0.25 mM, human blood): No amplification; optimum concentration [6]: 0.2 to 1 mM |
